Results from patent US5510501A, “Saintopin derivatives” (Kyowa Hakko Kogyo, Co. Ltd., priority 1992, dated 1996).
pIC50: −log10 of the molar value. ≈ marks a conversion by molar mass, not a printed value.

Experiments:
Solubility = assay type: physicochemical
[1] = tested on: Staphylococcus aureus ATCC 6538P; assay: Antibacterial activity, MIC by agar dilution method; assay type: cell-based; details: ATCC6538P, pH 7
Method: (§1) The antibacterial activity was determined by the agar dilution method using a medium (pH 7) which comprises 3 g/l Bacto-Tryptone (produced by Difco Laboratories), 3 g/l meat extract, 1 g/l yeast extract, 1 g/l glucose and 16 g/l agar.

[2] = tested on: Enterococcus faecium ATCC 10541; assay: as above; assay type: cell-based; details: ATCC10541, pH 7
Method: as §1

HeLaS3 cells = assay: Anti-tumor activity against HeLaS3 cells (Neutral Red growth inhibition); assay type: cell-based; details: Homo sapiens, HeLa S3, 72 hours
Method: HeLaS3 cells (ATCC HTB22) were suspended in a medium comprising 10% fetal calf serum, 2 mM glutamine and MEM medium (produced by Nippon Pharmaceutical Co., Ltd.) (hereinafter referred to as medium A) to a concentration of 3×10^4 cells/ml. The cell suspension was put into wells of a 96-well microtiter plate in an amount of 0.1 ml per well. The cells in the plate were cultured at 37° C. for 20 hours in a CO2 -incubator. Subsequently, the test compound appropriately diluted with medium A was added to the wells in an amount of 0.1 ml/well. The cells were further cultured at 37° C. for 72 hours in the CO2 -incubator, and then the culture supernatant was removed. To the residue was added a medium comprising medium A and 0.02% Neutral Red in an amount of 0.1 ml per well, followed by culturing at 37° C. for one hour in the CO2 -incubator, whereby the cells were stained. After removal of the culture supernatant, the residue was washed once with physiological saline. The pigment was extracted with 0.001N hydrochloric acid/30% ethanol, and the absorbance at 550 nm was measured by using a microplate reader. The concentration of the test compound at which the growth of the cells is inhibited by 50% (IC50) was calculated by comparing the absorbance of untreated cells with those of the cells treated with the test compound at known concentrations.

BALB 3T3/H-ras cells = assay: Growth inhibition against BALB 3T3/H-ras cells; assay type: cell-based; details: Mus musculus, 72 hours, Neutral Red

Solubility (Solubility; water)	MIC [1] [mg/L]	MIC [2] [mg/L]	Solubility (Solubility; ethanol)	Solubility (Solubility; methanol)	Solubility (Solubility; n-hexane)	pIC50 (HeLaS3 cells)	Solubility (Solubility; acetone)	Solubility (Solubility; chloroform)	Solubility (Solubility; dimethyl sulfoxide (DMSO))	Solubility (Solubility; ethyl acetate)	Compound	pIC50 (BALB 3T3/H-ras cells)
sparingly soluble	–	–	–	–	–	–	–	–	–	–	O=C1c2cc(O)cc(O)c2C(=O)c2c1cc1cc(O)cc(O)c1c2O [UCT 1003, reference compound]	–
Soluble	0.52 (≈ 1.24 µM)	0.52 (≈ 1.24 µM)	Soluble	Soluble	sparingly soluble	5.21	–	–	–	–	O=C1c2cc(O)cc(O)c2C(=O)c2c1cc1cc(O)cc(OS(=O)(=O)O)c1c2O [UCE 1022]	–
sparingly soluble	–	–	–	Readily soluble	sparingly soluble	–	Readily soluble	soluble	Readily soluble	soluble	CC(=O)c1c(O)cc2cc3c(c(O)c2c1O)C(=O)c1c(O)cc(O)cc1C3=O [Saintopin E]	5.62
